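Following 48 hours of exposure in 96-well plates, responses at five concentrations were used to interpolate endpoints linearly. Abbreviation: GI50, concentration required for 50% inhibition of growth. Definition used: TGI = concentration required for complete inhibition of growth.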

Common to all, as to experiment: NCI anticancer screen, dose series, 48 h
The subject of assay [1] is UO-31 renal.
Assay [2] deals with SK-OV-3 ovarian.
Assay [3] deals with NCI-H522 lung.
Assay [4] concerns MOLT-4 leukemia.
The subject of assay [5] is HOP-92 NSCLC.
The subject of assay [6] is MALME-3M melanoma.
The test system of assay [7] is A549 NSCLC.
Assay [8] has as its system HT29 colon.
The test system of assay [9] is K-562 leukemia.
For assay [10], the system named is HOP-62 NSCLC.

For `COC(=O)C(=O)C(C(=O)C(=O)Nc1cccc(C(C)=O)c1)c1nc2ccccc2[nH]c1=O` (configuration not stated), the TGI in [1], in assay [2], in [3], in assay [4], in [5] and in assay [6] was over 100 µM in each case. For the same compound, the TGI in assay [7], in assay [8] and in [9] was over 100 µM each time.
For `CCOc1cccc(/C=N/NC(=O)C(=O)Nc2cccc(C(F)(F)F)c2)c1O`, the GI50 is 3.1 µM in [10]; 0.63 µM in assay [1]; 5.28 µM in [2]; 2.29 µM in assay [3]; 1.35 µM in assay [4]; 4.35 µM in [6]. For the same compound, the GI50 in assay [7] was 2.04 µM; in [8], 6.51 µM; in [9] it was 2 µM. Also, the TGI is 53.6 µM in [10]; 18.5 µM in [1]; over 100 µM in [2]; over 100 µM in assay [3]; 22 µM in assay [4]; 64.2 µM in [6]. Also, the TGI in [7], in assay [8] and in assay [9] was over 100 µM throughout.
Take `O=c1cccc(C2CC(CO)C3CCCCN3C2)[nH]1` (configuration not stated): the TGI in assay [1], in assay [2], in [3], in assay [4], in assay [5] and in [7] was over 100 µM in each case. The TGI in assay [8] and in [9] was over 100 µM throughout.
For `O=[N+]([O-])c1cnn(C2=CNc3ccccc3N=C2)c1`, the TGI in assay [10], in assay [1], in assay [2], in [4], in assay [5] and in assay [6] was over 100 µM throughout. Further, the TGI in assay [7] and in [8] was over 100 µM in each case.
For `CN(C)CC1CCC/C1=N\O` (configuration not stated), the TGI in [10], in [1], in assay [2], in assay [3], in assay [4] and in assay [5] was over 100 µM each time. Moreover, the TGI in [8] and in [9] was over 100 µM in each case.
`O=C(O)c1ccc2c(c1)CCCC(c1ccc(Cl)cc1Cl)=C2c1ccc(O[C@H]2CCN(CCCF)C2)cc1`: the GI50 in assay [10] was 15 µM; in [1] it was 9.76 µM; in assay [2], 16.7 µM; in [4], 8.62 µM; in assay [5], 11.3 µM; in [6], 14.7 µM. Also, the results for the GI50 in assay [7], in assay [8] and in assay [9] were 6.7 µM, 11.9 µM and 8.05 µM, respectively. The TGI in assay [10] is 33.6 µM; in [1], 25.6 µM; in [2] it was 30.8 µM; in assay [4], 24.2 µM; in assay [5] it was 25.1 µM; in assay [6], 35.4 µM. Besides, the TGI in assay [7] turned out to be 24.1 µM; in [8], 28.1 µM; in assay [9] it was 23.1 µM.
Regarding `CCC1=NC(CO)[C@H](c2ccccc2)O1` (some centres not stated), the TGI in assay [10], in assay [5], in [6], in [7], in assay [8] and in [9] was over 100 µM in each case.
In the case of `COc1cc2c(=O)n(CCN)c3c4cc5c(cc4ccc3c2cc1OC)OCO5`, the GI50 was 0.444 µM in assay [10]; 0.605 µM in assay [1]; 1.24 µM in assay [2]; 0.167 µM in assay [3]; 0.0671 µM in assay [4]; 3.31 µM in [5]. Also, the GI50 in [6] is 0.692 µM; in [7], 0.626 µM; in assay [8], 0.222 µM. Further, the TGI in [10] worked out at 2.27 µM; in [1], 2.1 µM; in assay [2], 12 µM; in assay [3] it was 1.83 µM; in assay [4] it was 0.863 µM; in assay [5], 18 µM. Moreover, the TGI in assay [6] was 2.2 µM; in [7], 2.36 µM; in assay [8], 1.65 µM.
Turning to `CCCOc1ccc2nc(NC(=O)OC)[nH]c2c1`, the GI50 in assay [10] was 0.417 µM; in assay [1] it was 0.501 µM; in [2], 0.262 µM; in assay [3], 0.235 µM; in assay [4], 0.426 µM; in assay [5], 0.18 µM. Moreover, the GI50 in assay [6] was 2.72 µM; in assay [7] it was 0.337 µM; in assay [8], 0.174 µM. Besides, the TGI in assay [10] was over 78.8 µM; in [1], over 100 µM; in assay [3] it was 2.28 µM; in [4], over 100 µM; in [5], over 100 µM; in assay [6], over 100 µM. For the same compound, the TGI in assay [7] and in assay [8] was over 100 µM each time.
For the compound `CCN(CC)C(=S)Oc1cc2oc(=O)cc(C)c2cc1Cl`, the TGI in [10], in assay [1], in assay [3], in assay [4], in [5] and in [7] was over 100 µM in each case. For the same compound, the TGI in assay [8] and in assay [9] was over 100 µM throughout.
For `CCOC(=O)/C=C1\CCCC12OCCO2`, the TGI was over 100 µM in [10]; over 100 µM in assay [1]; over 100 µM in assay [2]; 7.38 µM in assay [3]; over 100 µM in assay [4]; over 100 µM in assay [6]. The TGI in assay [7] and in assay [9] was over 100 µM throughout.
Turning to `Nc1ccccc1C#C/C=C\C#Cc1ccccc1`, the GI50 is 15 µM in [10]; 17.7 µM in assay [1]; 32 µM in assay [2]; 4.72 µM in assay [3]; 13.3 µM in [4]; 17.8 µM in assay [7]. For the same compound, the GI50 in [8] was 21.1 µM; in assay [9], 12.8 µM. The TGI in assay [10] is 33.6 µM; in [1], 59.3 µM; in [2] it was 81.3 µM; in assay [3], 20.5 µM; in assay [4], over 100 µM; in assay [7], 77.7 µM. For the same compound, the TGI in assay [8] is 44.8 µM; in assay [9], over 100 µM.

For the origin of these results see PubChem BioAssay (NCI).
